How the values were obtained:
[1] = test system: 4T1-luc2 tumor metastasis; test: 4T1-luc2 tumor resection model, tumor metastasis; format: in vivo, BALB/c mice; conditions: 23 days post tumor resection
Method: 4T1-luc2 cells (5×10^5 cells/100 μl PBS) were orthotopically implanted into mammary fat-pad of BALB/c mice. Primary tumor growth was evaluated by measuring tumor weight and by monitoring bioluminescent imaging of mammary tumors (BL1) every 7 days. For tumor resection mouse model, 4T1-luc2 cells (5×10^5 cells/100 μl PBS) were orthotopically implanted into mammary fat pad of test mice. At day 21 post tumor implantation, the tumor mass was gently surgically removed. Bioluminescent imaging of metastatic tumor was monitored by using Non-invasive in vivo imaging system (IVIS). The body weight of the test mouse was approximately 25 g.
For this experiment, at 21 days post orthotopic tumor implantation, the tissue mass of 4T1-luc2 tumors in test mice was surgically removed.
At 21 days post implantation, the tumor mass was surgically removed gently. Following surgery, each treatment group was randomly divided into control, F1 and the docetaxel groups (i.e., via iv injection with 10 mg docetaxel/kg every other 3 days). […] The BLI values for each mouse was quantitatively measured and pooled for each test group.
(§1) Mice were sacrificed at 23 days post tumor resection, lung, liver and spleen of test mice were excised and tumor metastasis measured by bioluminescent imaging.

[2] = test system: granulocytic and monocytic MDSCs; test: MDSC populations in organs of tumor-resected mice (flow cytometry); format: in vivo, BALB/c mice; conditions: 23 days post tumor resection
Source text: Lung tissues of test mice were harvested and minced with 150 U/mL Type I Collagenase in tissue grinders for 20 to 50 times. After digestion and lysed with ACK buffer, grinded tissues were collected and filtered through 40 μm cell strainer. Spleen tissues were minced gently with PBS in tissue grinders. After lysed with ACK buffer, cells were collected for further analysis. Blood were lysed with ACK buffer for 3 times and harvested for further analysis. All cells were collected and stained with anti-CD11b, and anti-Ly6G/Ly-6C for flow cytometry analysis.
The myeloid derived suppressor cell (MDSC) populations in spleen tissue of each test group were investigated.
as §1

CC(=O)O[C@@]12CO[C@@H]1C[C@H](O)[C@@]1(C)C(=O)[C@H](O)C3=C(C)[C@@H](OC(=O)[C@H](O)[C@@H](NC(=O)OC(C)(C)C)c4ccccc4)C[C@@](O)([C@@H](OC(=O)c4ccccc4)[C@H]21)C3(C)C [docetaxel]
tumor metastasis into lung (bioluminescent imaging of excised organs) [1]: effectively inhibited | BLI value (bioluminescent imaging, whole body) ([1]; BP-E-F1 oral 5 mg/kg/day, docetaxel iv 10 mg/kg every other 3 days): effectively reduce | metastasis rate ([1]; F1 oral 5 mg/kg/day, docetaxel iv 10 mg/kg every other 3 days): 12.5% | 4T1 tumor-induced accumulation of granulocytic MDSCs in lung, peripheral blood and spleen [2]: significantly reduced
